Reference: ChEMBL document CHEMBL1201862, “PubChem BioAssay data set” (2004)
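48-hour exposure; five concentrations; linearly interpolated endpoints. The concentration for 50% growth inhibition is given as GI50.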 The source made the active and inactive calls. No stated cut-off is given here; in the data, active = GI50 up to about 1.1 µM and inactive = higher.

Tests used:
Test in all cases: NCI-60 cell line screen, 48 h
A549 = test system: A549
ACHN = test system: ACHN
CCRF-CEM = test system: CCRF-CEM
DMS-273 = test system: DMS-273
EKVX = test system: EKVX
HCC 2998 = test system: HCC 2998
HCT-116 = test system: HCT-116
HCT-15 = test system: HCT-15
HL-60 = test system: HL-60
HT-29 = test system: HT-29
IGROV-1 = test system: IGROV-1
KM-20L2 = test system: KM-20L2
KM12 = test system: KM12
LOX IMVI = test system: LOX IMVI
M19-MEL = test system: M19-MEL
MOLT-4 = test system: MOLT-4
Malme-3M = test system: Malme-3M
NCI-H460 = test system: NCI-H460
NCI-H522 = test system: NCI-H522
OVCAR-3 = test system: OVCAR-3
OVCAR-5 = test system: OVCAR-5
RPMI-8226 = test system: RPMI-8226
SF-295 = test system: SF-295
SF-539 = test system: SF-539
SK-MEL-5 = test system: SK-MEL-5
SK-OV-3 = test system: SK-OV-3
SNB-19 = test system: SNB-19
SW-620 = test system: SW-620
U-251 = test system: U-251
UO-31 = test system: UO-31
A498 = test system: A498
DMS-114 = test system: DMS-114
HOP-62 = test system: HOP-62
HOP-92 = test system: HOP-92
M14 = test system: M14
NCI-H226 = test system: NCI-H226
NCI-H23 = test system: NCI-H23
OVCAR-8 = test system: OVCAR-8
RXF 393 = test system: RXF 393
SK-MEL-28 = test system: SK-MEL-28
SNB-78 = test system: SNB-78
SR = test system: SR
TK-10 = test system: TK-10
UACC-257 = test system: UACC-257
COLO 205 = test system: COLO 205
DLD-1 = test system: DLD-1
NCI/ADR-RES = test system: NCI/ADR-RES
SF-268 = test system: SF-268
SK-MEL-2 = test system: SK-MEL-2
UACC-62 = test system: UACC-62
786-0 = test system: 786-0
BT-549 = test system: BT-549
CAKI-1 = test system: CAKI-1
DU-145 = test system: DU-145
Hs-578T = test system: Hs-578T
K562 = test system: K562
MCF7 = test system: MCF7
MDA-MB-231 = test system: MDA-MB-231
MDA-MB-435 = test system: MDA-MB-435
MDA-N = test system: MDA-N
OVCAR-4 = test system: OVCAR-4
PC-3 = test system: PC-3
SN12C = test system: SN12C
SNB-75 = test system: SNB-75
T47D = test system: T47D

Structure (SMILES): COc1cc([C@@H]2c3cc4c(cc3[C@@H](NCCCN(C)C)[C@H]3COC(=O)[C@H]23)OCO4)cc(OC)c1O
- GI50 (A549): 0.142 µM (active)
- GI50 (ACHN): 0.076 µM (active)
- GI50 (CCRF-CEM): 0.098 µM (active)
- GI50 (DMS-273): 0.164 µM (active)
- GI50 (EKVX): 0.745 µM (active)
- GI50 (HCC 2998): 0.838 µM (active)
- GI50 (HCT-116): 0.658 µM (active)
- GI50 (HCT-15): 0.513 µM
- GI50 (HL-60): 0.0582 µM (active)
- GI50 (HT-29): 0.916 µM (active)
- GI50 (IGROV-1): 0.653 µM (active)
- GI50 (KM-20L2): 716 nM (active)
- GI50 (KM12): 0.769 µM (active)
- GI50 (LOX IMVI): 181 nM (active)
- GI50 (M19-MEL): 530 nM (active)
- GI50 (MOLT-4): 0.0222 µM (active)
- GI50 (Malme-3M): 0.379 µM (active)
- GI50 (NCI-H460): 0.0232 µM (active)
- GI50 (NCI-H522): 0.637 µM (active)
- GI50 (OVCAR-3): 0.849 µM (active)
- GI50 (OVCAR-5): 1.15 µM (inactive)
- GI50 (RPMI-8226): 0.525 µM (active)
- GI50 (SF-295): 0.0995 µM (active)
- GI50 (SF-539): 0.376 µM (active)
- GI50 (SK-MEL-5): 0.212 µM (active)
- GI50 (SK-OV-3): 0.137 µM (active)
- GI50 (SNB-19): 0.22 µM (active)
- GI50 (SW-620): 0.346 µM (active)
- GI50 (U-251): 0.242 µM (active)
- GI50 (UO-31): 0.423 µM (active)

Structure (SMILES): CCN(CC)CSc1nc2ccccc2[nH]1
- GI50 (A498): > 100 µM (inactive)
- GI50 (A549): > 100 µM (inactive)
- GI50 (ACHN): > 100 µM (inactive)
- GI50 (CCRF-CEM): > 100 µM (inactive)
- GI50 (DMS-114): > 100 µM (inactive)
- GI50 (DMS-273): > 100 µM (inactive)
- GI50 (EKVX): > 100 µM (inactive)
- GI50 (HCT-116): > 100 µM (inactive)
- GI50 (HL-60): > 100 µM (inactive)
- GI50 (HOP-62): > 100 µM (inactive)
- GI50 (HOP-92): > 100 µM (inactive)
- GI50 (HT-29): > 100 µM (inactive)
- GI50 (IGROV-1): > 100 µM (inactive)
- GI50 (KM12): > 100 µM (inactive)
- GI50 (M14): > 100 µM (inactive)
- GI50 (MOLT-4): > 100 µM (inactive)
- GI50 (NCI-H226): > 100 µM (inactive)
- GI50 (NCI-H23): > 100 µM (inactive)
- GI50 (NCI-H460): > 100 µM (inactive)
- GI50 (NCI-H522): > 100 µM (inactive)
- GI50 (OVCAR-5): > 100 µM (inactive)
- GI50 (OVCAR-8): > 100 µM (inactive)
- GI50 (RXF 393): > 100 µM (inactive)
- GI50 (SF-295): > 100 µM (inactive)
- GI50 (SK-MEL-28): > 100 µM (inactive)
- GI50 (SK-OV-3): > 100 µM (inactive)
- GI50 (SNB-19): > 100 µM (inactive)
- GI50 (SNB-78): > 100 µM (inactive)
- GI50 (SR): > 100 µM (inactive)
- GI50 (TK-10): > 100 µM (inactive)
- GI50 (U-251): > 100 µM (inactive)
- GI50 (UACC-257): > 100 µM (inactive)
- GI50 (UO-31): > 100 µM (inactive)

Structure (SMILES): O=C(O)/C=C/c1c[nH]c(=O)[nH]c1=O
- GI50 (CCRF-CEM): > 250 µM (inactive)
- GI50 (COLO 205): > 250 µM (inactive)
- GI50 (DLD-1): > 250 µM (inactive)
- GI50 (EKVX): > 250 µM (inactive)
- GI50 (HCC 2998): > 250 µM (inactive)
- GI50 (HCT-116): > 250 µM (inactive)
- GI50 (HCT-15): > 250 µM
- GI50 (HL-60): 237 µM (inactive)
- GI50 (IGROV-1): > 250 µM (inactive)
- GI50 (KM12): > 250 µM (inactive)
- GI50 (LOX IMVI): > 250000 nM (inactive)
- GI50 (MOLT-4): > 250 µM (inactive)
- GI50 (Malme-3M): > 250 µM (inactive)
- GI50 (NCI-H226): > 250 µM (inactive)
- GI50 (NCI-H460): > 250 µM (inactive)
- GI50 (NCI-H522): > 250 µM (inactive)
- GI50 (NCI/ADR-RES): > 250 µM (inactive)
- GI50 (OVCAR-3): > 250 µM (inactive)
- GI50 (OVCAR-8): > 250 µM (inactive)
- GI50 (RPMI-8226): > 250 µM (inactive)
- GI50 (SF-268): > 250 µM (inactive)
- GI50 (SF-295): 129 µM (inactive)
- GI50 (SF-539): > 250 µM (inactive)
- GI50 (SK-MEL-28): > 250 µM (inactive)
- GI50 (SK-MEL-2): > 250 µM (inactive)
- GI50 (SK-MEL-5): > 250 µM (inactive)
- GI50 (SNB-19): > 250 µM (inactive)
- GI50 (SNB-78): > 250 µM (inactive)
- GI50 (SW-620): > 250 µM (inactive)
- GI50 (U-251): > 250 µM (inactive)
- GI50 (UACC-257): > 250 µM (inactive)
- GI50 (UACC-62): > 250 µM (inactive)
- GI50 (UO-31): > 250 µM (inactive)

Structure (SMILES): O=C(CCl)N1CCCCC1C1(c2cc3ccccc3[nH]2)OCCO1 (stereo not given)
- GI50 (786-0): 869 nM (active)
- GI50 (A498): 4.6 µM (inactive)
- GI50 (A549): 5.61 µM (inactive)
- GI50 (ACHN): 5 µM (inactive)
- GI50 (BT-549): 2.05 µM (inactive)
- GI50 (CAKI-1): 828 nM (active)
- GI50 (CCRF-CEM): 0.281 µM (active)
- GI50 (COLO 205): 2.94 µM (inactive)
- GI50 (DU-145): 5.11 µM (inactive)
- GI50 (EKVX): 1.5 µM (inactive)
- GI50 (HCC 2998): 10.4 µM (inactive)
- GI50 (HCT-116): 2.84 µM (inactive)
- GI50 (HCT-15): 4.82 µM
- GI50 (HL-60): 0.685 µM (active)
- GI50 (HOP-62): 3.12 µM (inactive)
- GI50 (HOP-92): 1 µM (active)
- GI50 (HT-29): 3.66 µM (inactive)
- GI50 (Hs-578T): 3.3 µM (inactive)
- GI50 (IGROV-1): 0.198 µM (active)
- GI50 (K562): 1.93 µM (inactive)
- GI50 (KM12): 1.77 µM (inactive)
- GI50 (LOX IMVI): 34.9 nM (active)
- GI50 (M14): 3.99 µM (inactive)
- GI50 (MCF7): 2.56 µM (inactive)
- GI50 (MDA-MB-231): 2.69 µM (inactive)
- GI50 (MDA-MB-435): 3.36 µM (inactive)
- GI50 (MDA-N): 2.34 µM (inactive)
- GI50 (MOLT-4): 1.85 µM (inactive)
- GI50 (Malme-3M): 4.47 µM (inactive)
- GI50 (NCI-H226): 6.53 µM (inactive)
- GI50 (NCI-H23): 2.21 µM (inactive)
- GI50 (NCI-H460): 9.71 µM (inactive)
- GI50 (NCI-H522): 0.194 µM (active)
- GI50 (NCI/ADR-RES): 3.05 µM (inactive)
- GI50 (OVCAR-3): 2.01 µM (inactive)
- GI50 (OVCAR-4): 1.73 µM (inactive)
- GI50 (OVCAR-5): 4.17 µM (inactive)
- GI50 (OVCAR-8): 4.24 µM (inactive)
- GI50 (PC-3): 2.98 µM (inactive)
- GI50 (RPMI-8226): 2.12 µM (inactive)
- GI50 (RXF 393): 3.8 µM (inactive)
- GI50 (SF-268): 3.22 µM (inactive)
- GI50 (SF-295): 3.77 µM (inactive)
- GI50 (SF-539): 1.65 µM (inactive)
- GI50 (SK-MEL-28): 11.6 µM (inactive)
- GI50 (SK-MEL-2): 7.98 µM (inactive)
- GI50 (SK-MEL-5): 3.08 µM (inactive)
- GI50 (SK-OV-3): 5.78 µM (inactive)
- GI50 (SN12C): 2.25 µM (inactive)
- GI50 (SNB-19): 10.6 µM (inactive)
- GI50 (SNB-75): 2.65 µM (inactive)
- GI50 (SR): 0.454 µM (active)
- GI50 (SW-620): 4.19 µM (inactive)
- GI50 (T47D): 7.45 µM (inactive)
- GI50 (TK-10): 3.5 µM (inactive)
- GI50 (U-251): 2.86 µM (inactive)
- GI50 (UACC-257): 4.7 µM (inactive)
- GI50 (UACC-62): 3.14 µM (inactive)
- GI50 (UO-31): 3.73 µM (inactive)
